Where two headings read alike, the source gives them in different places.
Assays:
cleaved PARP = experiment: Immunoblot of cleaved PARP (apoptotic marker) in SNU-398 cells; format: cell-based, human; conditions: SNU-398 HCC cells, 24 h
Description: (§1) RIPA buffer containing freshly added protease inhibitors (2 mM PMSF) and protease inhibitor cocktail was used for cell lysis. The lysed cells were incubated for 10 min on ice and subsequently centrifuged at 4° C. for 10 min at 14,000 rpm. The protein concentrations of cell lysates were assessed using Bradford Assay as per manufacturer's instructions. The samples were denatured using 4× Sample buffer at 95° C. for 5 min. The samples were size resolved using polyacrylamide gel (8%) and Mini-PROTEAN Tetra Cell module. The size-resolved proteins were transferred onto PVDF via electroblotting using Mini Trans-Blot® module. The membrane was blocked using 5% BSA in TBST. The membrane was incubated with appropriate primary antibody (overnight) and secondary antibody (1 h). Immobilon Crescendo Western HRP substrate was used for signal development and images were acquired using darkroom development techniques.

SALL4B = target: T1, SALL4B (Homo sapiens, UniProt Q9UJQ4); experiment: Immunoblot of endogenous SALL4B in SNU-398 HCC cells; format: cell-based
T1 construct: endogenous in cells; host or cells: SNU-398 HCC cells
T1 sequence (Q9UJQ4 1-616 isoform Q9UJQ4-2): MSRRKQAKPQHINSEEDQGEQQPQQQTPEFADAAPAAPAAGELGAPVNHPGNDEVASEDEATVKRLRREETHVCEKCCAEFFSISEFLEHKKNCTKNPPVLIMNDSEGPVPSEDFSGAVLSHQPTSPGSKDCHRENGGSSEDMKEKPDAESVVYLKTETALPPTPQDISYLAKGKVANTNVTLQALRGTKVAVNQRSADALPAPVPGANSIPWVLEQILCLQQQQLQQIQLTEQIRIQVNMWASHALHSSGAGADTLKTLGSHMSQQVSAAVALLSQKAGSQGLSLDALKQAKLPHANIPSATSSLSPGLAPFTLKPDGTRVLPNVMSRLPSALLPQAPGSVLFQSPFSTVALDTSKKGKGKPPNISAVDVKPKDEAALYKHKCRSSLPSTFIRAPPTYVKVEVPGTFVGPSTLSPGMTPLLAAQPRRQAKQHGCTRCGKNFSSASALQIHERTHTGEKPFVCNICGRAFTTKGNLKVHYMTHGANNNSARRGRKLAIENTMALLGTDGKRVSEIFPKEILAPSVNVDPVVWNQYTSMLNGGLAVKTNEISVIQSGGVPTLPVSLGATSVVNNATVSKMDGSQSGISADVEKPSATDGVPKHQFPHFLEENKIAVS
Description: as §1
A head-to-head comparison between the newly discovered SALL4 degrader QE-18-WG07 and IMiDs (Pomalidomide and Thalidomide) was performed. To assess the differential isoform degradation and biological consequences induced by QE-18-WG07 and IMiDs in cancer cells, the inventors employed the newly developed SALL4 isoform-specific cellular luciferase reporter system in Example 1 (FIG. 1A), and human HCC cell lines (SNU-398 and SNU-182), and NSCLC cell line H661 that have a high SALL4 level endogenously. The inventors treated H1299 cells overexpressing SALL4B_Nluc and the HCC (SNU-398, SNU-182) and NSCLC cells (H661) with increasing concentrations of QE-18-WG07 and IMiDs, and assayed the SALL4B_Nluc, as well as the endogenous SALL4A and B levels by immunoblots described in Example 4.
26S proteasome complex and neddylation was inhibited by cotreating MG132 at 1 and 3 μM and MLN4924 at 10 and 15 μM for 18 h, 20 h, 24 h or 48 h with desired concentrations of QE-18-WG07 in SNU-398, H661 and SNU-182 cells. After 18 h or 24 h of treatment, cells were then lysed and subjected to further protein extraction and immunoblotting by following the protocol in Example 4. For caspase glo assay, 20 h of cotreatment was performed by following the protocol in Example 5. For viability assay, 48 h of cotreatment was carried out by following the protocol in Example 5.
For lentiviral transduction, SNU-398 cells were spun with lentiviral particles containing the aforementioned vectors in RPMI (plus 10% FBS, 8 μg/mL polybrene) at 800 g for 60 minutes at room temperature. 96 h post-infection, cells were seeded in 6-well or 384-well plates and incubated overnight at 37° C., 5% CO2. Cells were then treated with DMSO or QE-18-WG07 at desired concentrations (0.5% final DMSO) for 18 h and 24 h. Immunoblot analysis was subsequently performed with the indicated antibodies by following the protocol in Example 4. […]

SNU-398 cells = experiment: CellTiter-Glo viability assay, SNU-398; format: cell-based, human; conditions: for IC50: read-out: IC50 of cell proliferation / viability
Description: (§2) Cells were plated in RPMI culture media (40 μL) in 384-well white, flat-bottom plates (Corning) and incubated at 37° C. in a humidified atmosphere of 5% CO2 overnight. The numbers of cells per well were 1,500 for SNU-398 and SNU-182, 750 for SNU-387, SNU-449, SNU-475 and SNU-423, and 1,000 for H661 and H1299. After overnight incubation, 10 μL of drug (1% DMSO in RPMI) at designed concentrations were added to the cells. The cells were then incubated for 16, 24, 48, 72, or 96 h at 37° C. in a humidified atmosphere of 5% CO2 before CellTiter-Glo reagent (10 μL) was dispensed to the wells. The cells were incubated at room temperature for a minimum of 10 min. After that, luminescence readings were recorded by a Microplate Reader (PHERAstar or Tecan Infinite M200 Pro) according to the manufacturer's instruction for measuring the luminescence.

IKZF1 = target: T2, IKZF1 (Homo sapiens, UniProt Q13422); experiment: Immunoblot of IKZF1 in SNU-398 HCC cells; format: cell-based; conditions: SNU-398 cells
T2 construct: with immunoblots in SNU-398 HCC cells; endogenous in cells; host or cells: SNU-398 HCC cells
Description: as §1

H661 cells = experiment: CellTiter-Glo viability assay, H661; format: cell-based; conditions: Homo sapiens
Description: as §2

T2 sequence (Q13422 whole entry): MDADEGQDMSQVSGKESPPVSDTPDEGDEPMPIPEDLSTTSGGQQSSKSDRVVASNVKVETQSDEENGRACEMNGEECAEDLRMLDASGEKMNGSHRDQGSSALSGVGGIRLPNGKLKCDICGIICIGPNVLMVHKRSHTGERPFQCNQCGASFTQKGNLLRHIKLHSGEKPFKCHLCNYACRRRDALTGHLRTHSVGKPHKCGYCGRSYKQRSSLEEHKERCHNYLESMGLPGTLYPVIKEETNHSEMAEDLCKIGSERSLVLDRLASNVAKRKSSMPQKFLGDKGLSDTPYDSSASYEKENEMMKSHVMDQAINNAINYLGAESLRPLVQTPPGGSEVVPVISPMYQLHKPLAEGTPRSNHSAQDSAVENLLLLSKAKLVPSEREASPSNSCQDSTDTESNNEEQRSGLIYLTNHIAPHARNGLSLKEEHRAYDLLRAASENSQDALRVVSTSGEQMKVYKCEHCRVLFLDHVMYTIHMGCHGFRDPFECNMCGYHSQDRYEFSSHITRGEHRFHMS

Structure (SMILES): COc1ccccc1NC(=O)Nc1ccc([N+](=O)[O-])cc1O [QE-18-WG07]
- cleavage of PARP (apoptosis induction) (cleaved PARP): prominent cleavage of PARP
- degradation of endogenous SALL4B after CRBN knockdown by shRNA (SALL4B; CRBN-KD SNU-398 cells, 18 h): prevented
- SALL4B degradation under MG132 or MLN4924 cotreatment (SALL4B; SNU-398, SNU-182 and H661 cells): chemically rescued
- Dmax (SALL4B; SNU-398 HCC cells, 24 h of treatment, immunoblot quantification): 87%
- DC50 (SALL4B; SNU-398 cells, 24 h, immunoblot quantification): ~640 nM
- IC50 (SNU-398 cells; 72 h): 397 nM
- Emax at 1 µM (SNU-398 cells; Homo sapiens, 72 h, achieved at 1 μM, read-out: maximum growth inhibition Emax): 90 to 100%
- EC50 (SNU-398 cells; Homo sapiens, 72 h cell viability, read-out: half maximal growth inhibition EC50): 310 nM
- IC50 (SNU-398 cells; Homo sapiens, SNU-398, 72 h, 72 h): 280 nM
- degradation of IKZF1 (IKZF1): did not degrade
- Emax at 1 µM (H661 cells; NCI-H661, 72 h, achieved at 1 μM, read-out: maximum growth inhibition Emax): 90 to 100%
- IC50 (H661 cells; NCI-H661, 72 h, read-out: IC50 of cell viability): 522 nM
- EC50 (H661 cells; NCI-H661, 72 h cell viability, read-out: half maximal growth inhibition EC50): 420 nM

Reference: US20240335429A1, “MOLECULAR GLUE AND SALL4 DEGRADER” (National University of Singapore, priority 2021, published 2024)
